Measurements from patent publication US10487064B1, “Crystalline forms of selective S1P1 receptor modulator and preparation method thereof” (Crystal Pharmatech Co., Ltd., priority 2015, dated 2019).
In brackets after ≈: the same amount, converted by molar mass. Entries after “also recorded” stand apart in the source; their conditions may differ.

What was measured:
[1] = Solubility assessment: saturated solutions in FaSSIF, FeSSIF, SGF and water, concentration by HPLC; assay type: physicochemical; conditions: for solubility compared with Form C in prior art: general statement
Protocol: Saturated solution of Form 2 and Form A, Form C disclosed in CN102177144B were prepared in FaSSIF (Fasted state simulated intestinal fluids, pH=6.5), FeSSIF (Fed state simulated intestinal fluids, pH=5.0), SGF (Simulated gastric fluids, pH=1.8), and water. Concentrations in the saturation solutions were measured after 1 hour and 24 hours by HPLC.
Form 3 and Form A, Form C were prepared into saturated solution in FaSSIF (Fasted state simulated intestinal fluids, pH=6.5), FeSSIF (Fed state simulated intestinal fluids, pH=5.0) and water. Concentrations in the saturation solutions were measured after 1 hour and 24 hours by HPLC.

[2] = cited from earlier work
[3] = Stability assessment of crystalline forms on storage (XRPD before and after); assay type: physicochemical; conditions: for Solid Form after storage / Crystalline form after storing: XRPD; for stability compared with Form C in prior art: general statement; for physical stability (overall conclusion): storage conditions of the stability assessment
Protocol: 20 mg of sample of Form 2 was stored under 25° C./60% RH, 40° C./75% RH for 6 months, and 80° C. for 3 months. […] 20 mg of sample of Form 3 was stored under 25° C./60% RH and 40° C./75% RH for 6 months.

[4] = treatment of moderate-to-severe chronic plaque psoriasis; cited from earlier work

Row | SMILES | Solubility ([1]; FaSSIF pH=6.5, 1 h) [µg/mL] | Solubility ([1]; FeSSIF pH=5.0, 1 h) [µg/mL] | Solubility ([1]; FeSSIF pH=5.0, 24 h) [µg/mL] | Solubility ([1]; SGF pH=1.8, 1 h) [µg/mL] | Solubility ([1]; SGF pH=1.8, 24 h) [µg/mL] | stability compared with Form C in prior art [3] | Solubility ([1]; FaSSIF pH=6.5, 24 h) [µg/mL] | solubility compared with Form C in prior art [1] | other results
1 | CCC/N=C1\S/C(=C\c2ccc(OC[C@H](O)CO)c(Cl)c2)C(=O)N1c1ccccc1C [Form C, Ponesimod, reference compound] | 10 (≈ 21.7 µM) | 133 (≈ 289 µM) | 149 (≈ 323 µM) | 29 (≈ 62.9 µM) | 24 (≈ 52.1 µM) | – | – | – | solubility at 1 h ([1]; water, thermodynamic from solid, H2O, 1 h, ND = below the LOD of instrument): 3 µg/mL (≈ 6.51 µM); solubility at 24 h ([1]; water, thermodynamic from solid, H2O, 24 h, ND = below the LOD of instrument): 1 µg/mL (≈ 2.17 µM); solubility (in words) [2]: unsatisfactory
2 | CCC/N=C1\S/C(=C\c2ccc(OC[C@H](O)CO)c(Cl)c2)C(=O)N1c1ccccc1C [Form 2, Ponesimod] | 17 (≈ 36.9 µM) | 996 (≈ 2160 µM) | 813 (≈ 1760 µM) | 97 (≈ 210 µM) | 124 (≈ 269 µM) | better | 33 (≈ 71.6 µM) | better | Solid Form after storage ([3]; 25° C./60% RH, 6 months): doesn't change; also recorded: Form 2; Solid Form after storage ([3]; 40° C./75% RH, 6 months): doesn't change; also recorded: Form 2; Solid Form after storage ([3]; 80° C., 3 months): doesn't change; also recorded: Form 2; physical stability (overall conclusion) [3]: good physical stability; solubility compared with Form A and Form C ([1]; in FaSSIF, FeSSIF, and SGF): higher
3 | CCC/N=C1\S/C(=C\c2ccc(OC[C@H](O)CO)c(Cl)c2)C(=O)N1c1ccccc1C [Form III, Ponesimod] | – | – | – | – | – | – | – | – | form transformation ([2]; at room temperature): will transform to Form II at room temperature
4 | CCC/N=C1\S/C(=C\c2ccc(OC[C@H](O)CO)c(Cl)c2)C(=O)N1c1ccccc1C [Ponesimod] | – | – | – | – | – | – | – | – | result of phase II mid-stage study [4]: positive results

Second part, led by results:

Row | Solubility ([1]; FaSSIF pH=6.5, 1 h) [µg/mL] | Solubility ([1]; FeSSIF pH=5.0, 1 h) [µg/mL] | Solubility ([1]; FeSSIF pH=5.0, 24 h) [µg/mL] | Solubility ([1]; SGF pH=1.8, 1 h) [µg/mL] | Solubility ([1]; SGF pH=1.8, 24 h) [µg/mL] | stability compared with Form C in prior art [3] | Solubility ([1]; FaSSIF pH=6.5, 24 h) [µg/mL] | solubility compared with Form C in prior art [1] | SMILES | other results
5 | 84 (≈ 182 µM) | 1168 (≈ 2530 µM) | 486 (≈ 1050 µM) | – | – | better | 15 (≈ 32.5 µM) | better | CCC/N=C1\S/C(=C\c2ccc(OC[C@H](O)CO)c(Cl)c2)C(=O)N1c1ccccc1C [Form 3, Ponesimod] | Crystalline form after storing ([3]; 25° C./60% RH, 6 months): doesn't change; also recorded: Form 3; Crystalline form after storing ([3]; 40° C./75% RH, 6 months): doesn't change; also recorded: Form 3; physical stability (overall conclusion) [3]: good physical stability; solubility compared with Form A and Form C ([1]; in FaSSIF and FeSSIF): higher
6 | 7 (≈ 15.2 µM) | 141 (≈ 306 µM) | 163 (≈ 354 µM) | 34 (≈ 73.8 µM) | 45 (≈ 97.6 µM) | – | 4 (≈ 8.68 µM) | – | CCC/N=C1\S/C(=C\c2ccc(OC[C@H](O)CO)c(Cl)c2)C(=O)N1c1ccccc1C [Form A, Ponesimod, reference compound] | thermodynamic stability ([2]; compared with Form C): inferior to Form C
7 | – | – | – | – | – | better | – | better | CCC/N=C1\S/C(=C\c2ccc(OC[C@H](O)CO)c(Cl)c2)C(=O)N1c1ccccc1C [Form 1, Ponesimod] | –
